Measured values from US12152012B2, “BRAG2 inhibitors and applications thereof” (CENTRE NATIONAL DE LA RECHERCHE SCIENTIFIQUE, priority 2018, dated 2024).

How the values were obtained:
[1] = molecular target: T1, BIG1 (DCB-HUS-Sec7 construct) (Homo sapiens, UniProt Q9Y6D6); assay: Nucleotide exchange kinetics on liposomes, activation of myristoylated Arf1; assay type: biochemical; details: 50 μM
T1 construct: BIG1^Sec7 (691-889), BIG1^DcbHusSec7 (2-888); made in house
T1 sequence (Q9Y6D6 2-888): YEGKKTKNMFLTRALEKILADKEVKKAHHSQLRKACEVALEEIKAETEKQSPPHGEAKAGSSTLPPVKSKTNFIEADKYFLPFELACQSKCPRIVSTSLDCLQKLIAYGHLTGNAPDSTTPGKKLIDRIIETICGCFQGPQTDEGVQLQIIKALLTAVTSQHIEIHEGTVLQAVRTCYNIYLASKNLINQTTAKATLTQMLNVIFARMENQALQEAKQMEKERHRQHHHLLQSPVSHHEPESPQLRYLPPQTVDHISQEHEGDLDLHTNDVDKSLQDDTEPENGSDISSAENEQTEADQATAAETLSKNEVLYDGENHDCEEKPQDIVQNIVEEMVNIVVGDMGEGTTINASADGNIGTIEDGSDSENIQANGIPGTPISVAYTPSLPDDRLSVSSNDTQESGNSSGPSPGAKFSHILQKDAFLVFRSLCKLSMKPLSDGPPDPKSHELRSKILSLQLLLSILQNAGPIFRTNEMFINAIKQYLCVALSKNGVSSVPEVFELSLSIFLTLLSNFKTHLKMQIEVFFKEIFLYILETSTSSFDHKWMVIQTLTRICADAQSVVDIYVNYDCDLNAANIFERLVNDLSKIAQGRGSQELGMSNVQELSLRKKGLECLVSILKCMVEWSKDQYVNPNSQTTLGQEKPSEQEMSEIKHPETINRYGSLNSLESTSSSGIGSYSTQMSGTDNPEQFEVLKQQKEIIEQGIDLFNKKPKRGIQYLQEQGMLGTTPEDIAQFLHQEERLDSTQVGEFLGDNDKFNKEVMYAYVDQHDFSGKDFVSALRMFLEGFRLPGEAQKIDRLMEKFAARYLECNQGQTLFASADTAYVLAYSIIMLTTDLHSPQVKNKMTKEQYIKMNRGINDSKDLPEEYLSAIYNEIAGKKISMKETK

[2] = molecular target: T2, EFA6 (Sec7PHCt construct) (Homo sapiens, UniProt A5PKW4); assay: as above; assay type: biochemical; details: 50 μM
T2 construct: human EFA6^Sec7 (527-727) and EFA6^Sec7PHCt (527-1024); made in house
T2 sequence (A5PKW4 527-1024): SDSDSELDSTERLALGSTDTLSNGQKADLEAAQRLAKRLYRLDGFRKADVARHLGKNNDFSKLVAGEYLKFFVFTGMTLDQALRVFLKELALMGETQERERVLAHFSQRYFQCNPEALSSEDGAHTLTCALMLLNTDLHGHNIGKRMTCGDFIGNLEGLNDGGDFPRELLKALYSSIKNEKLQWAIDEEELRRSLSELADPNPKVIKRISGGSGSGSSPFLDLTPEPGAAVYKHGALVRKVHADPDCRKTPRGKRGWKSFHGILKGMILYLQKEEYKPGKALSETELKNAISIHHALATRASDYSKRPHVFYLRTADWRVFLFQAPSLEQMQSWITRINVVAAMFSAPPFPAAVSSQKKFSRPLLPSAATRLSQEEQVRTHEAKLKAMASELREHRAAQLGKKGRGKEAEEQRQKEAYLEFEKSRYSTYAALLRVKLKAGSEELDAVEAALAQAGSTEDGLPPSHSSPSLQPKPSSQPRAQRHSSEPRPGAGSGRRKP

Effect on ArfGEF activity on liposomes [1]: no effect | Effect on ArfGEF activity on liposomes [2]: no effect
Structure (SMILES): Cc1ccc2oc(C(F)(F)F)cc(=O)c2c1[N+](=O)[O-] [Bragsin1, 6-methyl-5-nitro-2-(trifluoromethyl)-4H-chromen-4-one]
